Publication PMC9683716 (Science Advances, 2022)
Substitutions are numbered along the chain they refer to. Values joined by “and” are separate entries in the source; they are usually repeats but may differ in a detail not shown here. Identical values can stand only once.

Legend:
[1] = test system: Drosophila flies; assay: Climbing assay; type: in vivo, Drosophila melanogaster
[2] = biological target: T1, recombinant Drosophila Naam (Drosophila melanogaster, UniProt Q9VDU7); assay: Naam enzyme activity and inhibition assay; type: biochemical
T1 sequence (Q9VDU7 1-357): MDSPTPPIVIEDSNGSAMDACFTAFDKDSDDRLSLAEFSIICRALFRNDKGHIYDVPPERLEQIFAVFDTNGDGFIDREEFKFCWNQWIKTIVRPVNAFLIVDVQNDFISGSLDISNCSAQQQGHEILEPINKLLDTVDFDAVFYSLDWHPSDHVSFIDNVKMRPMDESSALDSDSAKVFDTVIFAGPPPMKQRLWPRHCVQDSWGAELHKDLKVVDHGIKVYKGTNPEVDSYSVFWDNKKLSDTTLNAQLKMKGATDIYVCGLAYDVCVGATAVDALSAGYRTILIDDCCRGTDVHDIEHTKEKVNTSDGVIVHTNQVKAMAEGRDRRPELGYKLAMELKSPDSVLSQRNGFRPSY

[3] = test system: C. elegans N2 Bristol strain; assay: Egg-laying assay; type: in vivo, Caenorhabditis elegans; conditions: wild-type nematodes, high concentrations
[4] = biological target: T2, recombinant Naam A265E mutant (Drosophila melanogaster, UniProt Q9VDU7, A265E)
T2 sequence (Q9VDU7 1-357 A265E): T1 sequence (Q9VDU7 1-357) with A265E

[5] = biological target: T3, recombinant Naam T294E mutant (Drosophila melanogaster, UniProt Q9VDU7, T294E); type: biochemical
T3 sequence (Q9VDU7 1-357 T294E): T1 sequence (Q9VDU7 1-357) with T294E

[6] = biological target: Myzus persicae (aphid) Naam; assay: Naam inhibition assay, aphid Naam; type: biochemical
[7] = biological target: Nilaparvata lugens (planthopper) Naam; assay: Naam inhibition assay, planthopper Naam; type: biochemical
[8] = biological target: T4, Aedes albopictus (mosquito) Naam (Aedes albopictus, UniProt A0ABM2A4C4); assay: Naam inhibition assay, mosquito Naam; type: biochemical
T4 sequence (A0ABM2A4C4 1-377): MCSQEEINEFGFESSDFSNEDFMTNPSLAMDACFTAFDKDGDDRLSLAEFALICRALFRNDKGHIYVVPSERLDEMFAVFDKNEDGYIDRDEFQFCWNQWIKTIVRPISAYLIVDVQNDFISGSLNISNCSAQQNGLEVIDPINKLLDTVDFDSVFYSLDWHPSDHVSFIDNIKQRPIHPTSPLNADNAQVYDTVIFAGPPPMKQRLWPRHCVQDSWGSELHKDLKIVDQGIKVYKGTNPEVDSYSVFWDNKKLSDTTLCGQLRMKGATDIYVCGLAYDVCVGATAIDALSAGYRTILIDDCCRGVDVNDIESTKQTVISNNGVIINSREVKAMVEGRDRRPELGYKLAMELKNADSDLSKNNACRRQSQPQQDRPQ

[9] = biological target: T5, Apis mellifera (honey bee) Naam2 (Apis mellifera, UniProt A0A7M7MP11); assay: Naam enzyme activity and inhibition assay, honey bee Naam2; type: biochemical
T5 sequence (A0A7M7MP11 1-346): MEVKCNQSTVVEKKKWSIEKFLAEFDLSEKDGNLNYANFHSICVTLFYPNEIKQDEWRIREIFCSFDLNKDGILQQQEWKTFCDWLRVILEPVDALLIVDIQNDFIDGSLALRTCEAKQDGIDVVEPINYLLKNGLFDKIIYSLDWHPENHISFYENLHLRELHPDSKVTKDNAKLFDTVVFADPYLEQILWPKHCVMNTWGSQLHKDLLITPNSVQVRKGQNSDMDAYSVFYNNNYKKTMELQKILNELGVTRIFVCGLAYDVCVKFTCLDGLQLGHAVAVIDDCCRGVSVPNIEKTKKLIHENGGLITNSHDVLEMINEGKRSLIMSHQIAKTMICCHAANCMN

[10] = biological target: T6, C. elegans PNC-1 (Caenorhabditis elegans, UniProt Q9N426); assay: Naam inhibition assay, C. elegans PNC-1; type: biochemical
T6 sequence (Q9N426 25-335): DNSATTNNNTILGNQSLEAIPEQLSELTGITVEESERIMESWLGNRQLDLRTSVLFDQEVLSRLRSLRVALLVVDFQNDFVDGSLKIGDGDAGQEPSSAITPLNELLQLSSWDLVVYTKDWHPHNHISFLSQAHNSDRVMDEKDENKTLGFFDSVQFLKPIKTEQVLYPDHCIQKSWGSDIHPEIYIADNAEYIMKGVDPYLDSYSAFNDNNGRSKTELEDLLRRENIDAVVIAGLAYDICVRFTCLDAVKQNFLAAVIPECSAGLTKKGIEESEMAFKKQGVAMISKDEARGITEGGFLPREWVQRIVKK

[11] = biological target: T7, C. elegans PNC-2 (Caenorhabditis elegans, UniProt Q7YTI0); assay: Naam inhibition assay, C. elegans PNC-2; type: biochemical
T7 sequence (Q7YTI0 1-316): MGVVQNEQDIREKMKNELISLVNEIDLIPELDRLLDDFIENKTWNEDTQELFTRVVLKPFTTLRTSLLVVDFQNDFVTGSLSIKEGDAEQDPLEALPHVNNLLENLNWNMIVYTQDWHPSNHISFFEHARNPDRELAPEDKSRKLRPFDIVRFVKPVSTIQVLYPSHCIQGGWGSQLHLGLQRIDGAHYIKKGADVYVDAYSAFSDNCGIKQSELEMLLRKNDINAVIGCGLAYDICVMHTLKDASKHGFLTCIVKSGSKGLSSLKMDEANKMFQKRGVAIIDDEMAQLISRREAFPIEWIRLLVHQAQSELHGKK

[12] = biological target: B. burgdorferi PncA (Borreliella burgdorferi, UniProt G1FKW2); assay: Naam inhibition assay, B. burgdorferi PncA; type: biochemical, Borrelia burgdorferi
[13] = test system: mice; conditions: cited from earlier work
[14] = test system: Nan-Iav TRPV channels; conditions: cited from earlier work

SMILES: CC1=NNC(=O)N(/N=C/c2cccnc2)C1 [pymetrozine]
- sensitivity of Naam knockdown flies ([1]; in vivo): still sensitive

SMILES: O=Cc1cccnc1 [NAH, Nicotinaldehyde]
- effect on flies in climbing assays ([1]; even at 5 mM): no significant effect
- Ki [2]: 330 nM
- number of eggs laid [3]: significantly reduced the number of eggs laid

SMILES: CC(=O)N1C(=O)N(NCc2cccnc2)Cc2cc(C(F)(C(F)(F)F)C(F)(F)F)ccc21 [pyrifluquinazon]
- sensitivity of Naam knockdown flies ([1]; in vivo): still sensitive

SMILES: O=Cc1cnccc1C(F)(F)F [TNAH, 4-(trifluoromethyl)nicotinaldehyde]
- number of eggs laid [3]: significantly reduced the number of eggs laid

SMILES: NC(=O)c1cccnc1 [NAM, nicotinamide]
- effect on climbing scores ([1]; 2 or 5 mM): no significant effect
- effect on climbing scores ([1]; feeding high concentrations (> 10 mM)): reduced the climbing scores
- turnover number relative to wild-type Naam ([4]; A265E substitution): ~ 22%

SMILES: NC(=O)c1cnccc1C(F)(F)F [TFNA-AM, 4-trifluoromethylnicotinamide]
- reduction of climbing ability compared with FL ([1]; 2 mM, after 1 hour of feeding, score at 30 s): more effective than FL
- difference to FL in reduction of climbing ability ([1]; 2 mM, after 3 hours of feeding, score at 30 s): not significant
- effect on climbing scores in combination with NAM ([1]; 10 or 20 μM combined with NAM): significantly synergized the toxicity of NAM
- negative geotaxis (climbing index at 30 s) ([1]; control flies, 2 mM for 3 hours): < 15%
- climbing index (at 30 s) ([1]; in vivo): 68% and 52%
- concentration that suppressed negative geotaxis ([1]; in vivo): ≥ 20 µM
- effect of Naam knockdown on climbing index ([1]; in vivo): had no effect
- effect on negative geotaxis ([1]; in vivo): virtually abolished
- effect on negative geotaxis of Naam^A265E flies ([1]; in vivo): did not impair negative geotaxis
- sensitivity of heterozygous control flies in climbing assays ([1]; in vivo): as sensitive as wild-type flies
- effect on climbing scores, alone ([1]; low doses (10 or 20 μM) alone): negligible effects
- Ki [2]: 720 nM
- enzymatic activity of Naam in the presence of compound ([2]; 100 μM): markedly reduced the enzyme activity
- resistance based on increase in Ki vs wild-type Naam [5]: 7.5 fold
- Ki [6]: 80 nM
- Ki [7]: 600 nM
- Ki [8]: 1090 nM
- Ki [9]: 16700 nM
- fold less sensitive than the honey bee Naam1 ([9]; Ki Naam2 vs Naam1): 21 fold
- fold less sensitive than the aphid Naam ([9]; Ki Naam2 vs aphid Naam): 209 fold
- sensitivity of PNC-1 [10]: neither PNC-1 nor PNC-2 was sensitive
- sensitivity of PNC-2 [11]: neither PNC-1 nor PNC-2 was sensitive
- Ki [12]: 2370 nM
- resistance based on increase in Ki vs wild-type Naam [4]: 415.7 fold
- LD50 (median lethal dose) [13]: > 2000 mg/kg
- activation of heterologously expressed Nan-Iav TRPV channels [14]: neither FL nor its metabolite TFNA-AM activates
